Laboratory results: patent US10770169B2, “Method of providing a treatment to a subject based on a dynamic pathway map” (THE REGENTS OF THE UNIVERSITY OF CALIFORNIA, priority 2010, dated 2020)
Where two headings read alike, the source gives them in different places.

Tested on: panel of 55 breast cancer cell lines
Experiment: Cell growth inhibition assay (Cell Titer Glo, 72 h, 9 doses; GI50, TGI, LC50)
Type: cell-based, human
Conditions: Homo sapiens, read-out: GI50 (converted)
[1] = AU565, AU565 cell line, censored GI50 values
[2] = BT-474, BT474 cell line, censored GI50 values
[3] = BT-483, BT483 cell line, censored GI50 values
[4] = CAMA-1, CAMA1 cell line, censored GI50 values
[5] = HCC38, HCC38 cell line, censored GI50 values
[6] = HCC70, HCC70 cell line, censored GI50 values
[7] = HCC202, HCC202 cell line, censored GI50 values
[8] = HCC1143, HCC1143 cell line, censored GI50 values
[9] = HCC1187, HCC1187 cell line, censored GI50 values
[10] = HCC1395, HCC1395 cell line, censored GI50 values
[11] = HCC1419, HCC1419 cell line, censored GI50 values
[12] = HCC1428, HCC1428 cell line, censored GI50 values
[13] = HCC1500, HCC1500 cell line, censored GI50 values
[14] = HCC1806, HCC1806 cell line, censored GI50 values
[15] = HCC1954, HCC1954 cell line, censored GI50 values
[16] = HCC2185 cell line, censored GI50 values
[17] = HCC3153 cell line, censored GI50 values
[18] = LY2 cell line, censored GI50 values
[19] = MCF7, MCF7 cell line, censored GI50 values
[20] = MDA-MB-134-VI, MDAMB134VI cell line, censored GI50 values
[21] = MDA-MB-157, MDAMB157 cell line, censored GI50 values
[22] = MDA-MB-175-VII, MDAMB175VII cell line, censored GI50 values
[23] = MDA-MB-231, MDAMB231 cell line, censored GI50 values
[24] = MDA-MB-361, MDAMB361 cell line, censored GI50 values
[25] = MDA-MB-415, MDAMB415 cell line, censored GI50 values
[26] = MDA-MB-436, MDAMB436 cell line, censored GI50 values
[27] = MDA-MB-453, MDAMB453 cell line, censored GI50 values
[28] = MDA-MB-468, MDAMB468 cell line, censored GI50 values
[29] = SK-BR-3, SKBR3 cell line, censored GI50 values
[30] = SUM52PE, SUM52PE cell line, censored GI50 values
[31] = SUM185PE, SUM185PE cell line, censored GI50 values
[32] = SUM1315MO2, SUM1315MO2 cell line, censored GI50 values
[33] = SUM-159-PT, SUM159PT cell line, censored GI50 values
[34] = UACC-812, UACC812 cell line, censored GI50 values
[35] = UACC-893, UACC893 cell line, censored GI50 values
[36] = ZR-75-1, ZR751 cell line, censored GI50 values
[37] = ZR-75B, ZR75B cell line, censored GI50 values

SMILES: CC[C@@]1(O)C(=O)OCc2c1cc1n(c2=O)Cc2cc3c(CN(C)C)c(O)ccc3nc2-1 [Topotecan]
- GI50 [1]: 0.0186 µM
- GI50 (AU565, cell line AU565): 0.0186 µM
- GI50 [2]: 2.51 µM
- GI50 (BT-474, cell line BT474): 2.51 µM
- GI50 [3]: 0.0162 µM
- GI50 (BT-483, cell line BT483): 0.0162 µM
- GI50 [4]: 0.398 µM
- GI50 (CAMA-1, cell line CAMA1): 0.398 µM
- GI50 [5]: 0.00372 µM
- GI50 (HCC38, cell line HCC38): 0.00372 µM
- GI50 [6]: 19.1 µM
- GI50 (HCC70, cell line HCC70): 19.1 µM
- GI50 [7]: 0.759 µM
- GI50 (HCC202, cell line HCC202): 0.759 µM
- GI50 [8]: 0.257 µM
- GI50 (HCC1143, cell line HCC1143): 0.257 µM
- GI50 [9]: 0.309 µM
- GI50 (HCC1187, cell line HCC1187): 0.309 µM
- GI50 [10]: 0.0151 µM
- GI50 (HCC1395, cell line HCC1395): 0.0151 µM
- GI50 [11]: 0.363 µM
- GI50 (HCC1419, cell line HCC1419): 0.363 µM
- GI50 [12]: 0.447 µM
- GI50 (HCC1428, cell line HCC1428): 0.447 µM
- GI50 [13]: 0.0145 µM
- GI50 (HCC1500, cell line HCC1500): 0.0145 µM
- GI50 [14]: 0.0204 µM
- GI50 (HCC1806, cell line HCC1806): 0.0204 µM
- GI50 [15]: 0.302 µM
- GI50 (HCC1954, cell line HCC1954): 0.302 µM
- GI50 [16]: 0.0407 µM
- GI50 [17]: 0.209 µM
- GI50 [18]: 0.257 µM
- GI50 [19]: 1.32 µM
- GI50 (MCF7, cell line MCF7): 1.32 µM
- GI50 [20]: 0.115 µM
- GI50 [21]: 0.398 µM
- GI50 (MDA-MB-157, cell line MDAMB157): 0.398 µM
- GI50 [22]: 2.88 µM
- GI50 [23]: 1.17 µM
- GI50 (MDA-MB-231, cell line MDAMB231): 1.17 µM
- GI50 [24]: 0.525 µM
- GI50 (MDA-MB-361, cell line MDAMB361): 0.525 µM
- GI50 [25]: 0.191 µM
- GI50 (MDA-MB-415, cell line MDAMB415): 0.191 µM
- GI50 [26]: 0.0302 µM
- GI50 (MDA-MB-436, cell line MDAMB436): 0.0302 µM
- GI50 [27]: 0.0851 µM
- GI50 (MDA-MB-453, cell line MDAMB453): 0.0851 µM
- GI50 [28]: 0.0457 µM
- GI50 (MDA-MB-468, cell line MDAMB468): 0.0457 µM
- GI50 [29]: 0.0112 µM
- GI50 (SK-BR-3, cell line SKBR3): 0.0112 µM
- GI50 (SUM44PE cell line, censored GI50 values): 0.372 µM
- GI50 [30]: 0.00832 µM
- GI50 (SUM52PE, cell line SUM52PE): 0.00832 µM
- GI50 [31]: 0.0631 µM
- GI50 (SUM185PE, cell line SUM185PE): 0.0631 µM
- GI50 [32]: 0.00832 µM
- GI50 [33]: 0.741 µM
- GI50 (SUM-159-PT, cell line SUM159PT): 0.741 µM
- GI50 [34]: 0.0603 µM
- GI50 (UACC-812, cell line UACC812): 0.0603 µM
- GI50 [35]: 0.347 µM
- GI50 (UACC-893, cell line UACC893): 0.347 µM
- GI50 [36]: 0.0407 µM
- GI50 (ZR-75-1, cell line ZR751): 0.0407 µM
- GI50 [37]: 0.0631 µM
- GI50 (ZR-75B, cell line ZR75B): 0.0631 µM
- GI50 (cell line HCC2185): 0.0407 µM
- GI50 (cell line HCC3153): 0.209 µM
- GI50 (cell line LY2): 0.257 µM
- GI50 (cell line MDAMB134V): 0.115 µM
- GI50 (cell line MDAMB175V): 2.88 µM
- GI50 (cell line SUM44PE): 0.372 µM
- GI50 (cell line SUM1315MO): 0.00832 µM

SMILES: CC(C)C[C@H](NC(=O)[C@H](Cc1ccccc1)NC(=O)c1cnccn1)B(O)O [Bortezomib]
- GI50 (600MPE cell line, censored GI50 values): 0.427 µM
- GI50 [1]: 0.00525 µM
- GI50 (AU565, cell line AU565): 0.00525 µM
- GI50 (BT-20, BT20 cell line, censored GI50 values): 0.0468 µM
- GI50 (BT-20, cell line BT20): 0.0468 µM
- GI50 [2]: 0.00741 µM
- GI50 (BT-474, cell line BT474): 0.00741 µM
- GI50 [3]: 0.0195 µM
- GI50 (BT-483, cell line BT483): 0.0195 µM
- GI50 (BT-549, BT549 cell line, censored GI50 values): 0.00603 µM
- GI50 (BT-549, cell line BT549): 0.00603 µM
- GI50 [4]: 0.0166 µM
- GI50 (CAMA-1, cell line CAMA1): 0.0166 µM
- GI50 [5]: 0.011 µM
- GI50 (HCC38, cell line HCC38): 0.011 µM
- GI50 [6]: 0.00178 µM
- GI50 (HCC70, cell line HCC70): 0.00178 µM
- GI50 [7]: 0.00724 µM
- GI50 (HCC202, cell line HCC202): 0.00724 µM
- GI50 [8]: 0.00851 µM
- GI50 (HCC1143, cell line HCC1143): 0.00851 µM
- GI50 [9]: 0.00339 µM
- GI50 (HCC1187, cell line HCC1187): 0.00339 µM
- GI50 [10]: 0.00724 µM
- GI50 (HCC1395, cell line HCC1395): 0.00724 µM
- GI50 [11]: 0.00437 µM
- GI50 (HCC1419, cell line HCC1419): 0.00437 µM
- GI50 [12]: 0.0912 µM
- GI50 (HCC1428, cell line HCC1428): 0.0912 µM
- GI50 [13]: 0.0123 µM
- GI50 (HCC1500, cell line HCC1500): 0.0123 µM
- GI50 [14]: 0.0229 µM
- GI50 (HCC1806, cell line HCC1806): 0.0229 µM
- GI50 (HCC1937, HCC1937 cell line, censored GI50 values): 0.00759 µM
- GI50 (HCC1937, cell line HCC1937): 0.00759 µM
- GI50 [15]: 0.01 µM
- GI50 (HCC1954, cell line HCC1954): 0.01 µM
- GI50 [16]: 0.00447 µM
- GI50 [17]: 0.0105 µM
- GI50 [18]: 0.603 µM
- GI50 [19]: 0.0191 µM
- GI50 (MCF7, cell line MCF7): 0.0191 µM
- GI50 [20]: 0.00832 µM
- GI50 [21]: 0.00692 µM
- GI50 (MDA-MB-157, cell line MDAMB157): 0.00692 µM
- GI50 [22]: 0.00525 µM
- GI50 [23]: 0.0275 µM
- GI50 (MDA-MB-231, cell line MDAMB231): 0.0275 µM
- GI50 [24]: 6.03 µM
- GI50 (MDA-MB-361, cell line MDAMB361): 6.03 µM
- GI50 [25]: 0.0324 µM
- GI50 (MDA-MB-415, cell line MDAMB415): 0.0324 µM
- GI50 [26]: 0.00871 µM
- GI50 (MDA-MB-436, cell line MDAMB436): 0.00871 µM
- GI50 [27]: 0.00692 µM
- GI50 (MDA-MB-453, cell line MDAMB453): 0.00692 µM
- GI50 [28]: 0.0141 µM
- GI50 (MDA-MB-468, cell line MDAMB468): 0.0141 µM
- GI50 [29]: 0.00759 µM
- GI50 (SK-BR-3, cell line SKBR3): 0.00759 µM
- GI50 [30]: 0.00525 µM
- GI50 (SUM52PE, cell line SUM52PE): 0.00525 µM
- GI50 (SUM149PT, SUM149PT cell line, censored GI50 values): 0.00741 µM
- GI50 (SUM149PT, cell line SUM149PT): 0.00741 µM
- GI50 [31]: 0.00537 µM
- GI50 (SUM185PE, cell line SUM185PE): 0.00537 µM
- GI50 (SUM225CWN, SUM225CWN cell line, censored GI50 values): 0.0105 µM
- GI50 (SUM225CWN, cell line SUM225CWN): 0.0105 µM
- GI50 [32]: 0.0138 µM
- GI50 [33]: 0.00741 µM
- GI50 (SUM-159-PT, cell line SUM159PT): 0.00741 µM
- GI50 (T47D, T47D cell line, censored GI50 values): 0.00832 µM
- GI50 (T47D, cell line T47D): 0.00832 µM
- GI50 [34]: 0.024 µM
- GI50 (UACC-812, cell line UACC812): 0.024 µM
- GI50 [35]: 0.000646 µM
- GI50 (UACC-893, cell line UACC893): 0.000646 µM
- GI50 [36]: 0.0174 µM
- GI50 (ZR-75-1, cell line ZR751): 0.0174 µM
- GI50 [37]: 0.132 µM
- GI50 (ZR-75B, cell line ZR75B): 0.132 µM
- GI50 (cell line 600MPE): 0.427 µM
- GI50 (cell line HCC2185): 0.00447 µM
- GI50 (cell line HCC3153): 0.0105 µM
- GI50 (cell line LY2): 0.603 µM
- GI50 (cell line MDAMB134V): 0.00832 µM
- GI50 (cell line MDAMB175V): 0.00525 µM
- GI50 (cell line SUM1315MO): 0.0138 µM
